Assay results reported in patent US8871900B2, “Fibroblast growth factor (FGF) analogs and uses thereof” (University of Rochester, priority 2008, dated 2014).

Experiments:
[1] = in animals; cited from earlier work
FGF receptor = details: cited from earlier work
[2] = tested on: bovine aortic endothelial cells; details: in vitro; cited from earlier work
irradiated mice (AGS) = details: cited from earlier work; for dose of peak response: AGS, LD50/7 or crypt assay
[3] = tested on: proliferating crypts of small intestine; details: comparison stated for native FGFs; cited from earlier work
Cdc42, Rac1, Mapk10, Cfl = assay: Gene expression in irradiated BM cells (Luminex multiplex array); type: cell-based, mouse; details: treatment 20 min after 5 Gy IR, 6 hours, P<0.05
MCP-1, IL-6, TNFα = assay: Plasma inflammatory molecules after sub-TBI (Luminex bead array); type: in vivo, mouse (Balb/c); details: Balb/c, 12 Gy sub-TBI
Experimental: Bead array technology has been developed to facilitate the study of cytokine expression profiles in normal tissues following radiation. Bead arrays have several advantages over ELISA. First, mice have a limited blood volume (0.3-0.4 ml of plasma/mouse). Each ELISA typically requires approximately 0.1 ml and thus only a limited number of assays are possible. Secondly, the time required to perform ELISAs one by one stresses the system in a large experiment and would be difficult to perform in the field in case of a radiological event. The Luminex bead array technology was used. The paired monoclonal antibodies, the highly-purified protein standards, and the more than 50 different cytokinespecific beads were purchased. In these studies, Balb/c mice received 12 Gy sub-TBI and then im injection of vehicle alone (0.2 ml of saline), FGF-P (2 mg/kg at 10 min post-IR and daily for two days), or Amifostine (200 mg/kg, either 30 min before IR, or 10 min after IR). The samples were collected 3.5 days after IR.
All three of these cytokines are associated with increased severity and progression of radiation-related inflammatory toxicity in mouse and man.

[4] = Stool hemoccult score after sub-TBI; type: in vivo, mouse (Balb/c, C57BL/6); details: Balb/c, 12.5 Gy sub-TBI; FGF-P 2 mg/kg im 15 min post irradiation; Amifostine iv 30 min pre-irradiation; P<0.05
From the text: There are commonly employed assays known to be relevant to both mouse and man for determining relative endpoints. These include: 1) stool blood: mucosal barrier breakdown is associated with bleeding of the small bowel; therefore, a hemoccult analysis with a commercial kit (BD Cat #64151) was used in the preliminary data at 3 days after sub-TBI. The time course and frequency of GI bleeding; 2) stool formation: the GI functions of digestion, absorption of nutrition and water, and the regular movement of intestinal muscle are required for formation of normal stool can be measured. All these functions can be upset by radiation. For example, loss of villi leads to decreased fluid absorption and diarrhea. The colon was excised and examined visually for the presence of formed stool at 3.5 days post-IR; 3) endotoximia: bacterial translocation can occur at early times following gastrointestinal radiation exposure.
2) A standard scoring scale was used to evaluate stool formation (diarrhea). The bowel was extracted from the abdomen and visually inspected. Formed stool was easily distinguished from semi-solid and liquid stool as it passed from the ascending to descending colon. FIGS. 7B and 7C show the irradiated bowel in controls compared with FGF-P-treated Balb/c mice. The FGF-P was given at a dose of 2 mg/kg im for three daily doses beginning 15 min after irradiation. […]

[5] = Plasma endotoxin after sub-TBI (tachypleus amebocyte lysate kit); type: in vivo, mouse (Balb/c, C57BL/6); details: Balb/c, 10.5 Gy
Experimental: Some studies have employed bacterial culture of liver samples. Bacterial translocation occurs due to mucosal barrier changes (1) at the level of the basement membrane and (2) bowel mucous volume and composition. The most reliable and most clinically applicable method to measure bacterial translocation is the endotoxin assay. The level of plasma endotoxin 3.5 days post-IR was measured with a commercialized kit that utilized tachypleus amebocyte lysate to sensitively quantitate endotoxin at extremely low levels (<0.01 EU/ml); and 4) body weight (BW): poor nutrition and water absorption will result in reduced body weight. The rate and severity of weight loss, as well as the pace of body weight recovery, will be measured.
2) A standard scoring scale was used to evaluate stool formation (diarrhea). The bowel was extracted from the abdomen and visually inspected. Formed stool was easily distinguished from semi-solid and liquid stool as it passed from the ascending to descending colon. FIGS. 7B and 7C show the irradiated bowel in controls compared with FGF-P-treated Balb/c mice. The FGF-P was given at a dose of 2 mg/kg im for three daily doses beginning 15 min after irradiation. Animals were sacrificed 3.5 days after 10.5 Gy sub-TBI.

[6] = tested on: proliferating crypts of small intestine; assay: Crypt assay of small intestine after sub-TBI (H&E, BrdU, villi length); type: in vivo, mouse (Balb/c, C57BL/6); details: Balb/c
From the text: Enhanced proliferation of crypts in small intestine: The epithelium of the small intestine has a rapid turnover, renewing every 3-7 days. The stem cells are located ⅓ of the way up the […] and active mitosis can be seen above growing into the villus and below, forming the crypt. There are no definitive markers available to identify the stem cells, and thus the number of these cells in each crypt are unknown. When the bowel is irradiated, the number of crypts remains constant up to a dose just below the LD50/7. Above that dose, there is a log-linear decrease in the number of crypts, usually measured at 3.5 days. […] Data from the crypt assay can be augmented with injection of BrdU. BrdU can be given to animals at one or more times after irradiation to determine the rate of proliferation and rate of elongation of villi.
FGF-P was then repeated daily for 2 days. At 80 hr post-IR, BrdU (120 mg/kg) was injected ip and 4 hours later (about 3.5 days post-IR), the mice were sacrificed and the duodenal, jejunal and ileal segments (3-4 pieces/segment) were harvested, fixed in formalin, processed in paraffin blocks, cut in transverse sections of the full segment circumference (5 μm thick) and stained with H&E or anti-BrdU following the standard immunochemistry procedure (23). The proliferating crypts were defined as containing 10 or more adjacent chromophilic non-Paneth cells and a lumen. The circumference of a transverse cross-section of the intestine was used as a unit. The number of proliferating crypts was counted in each circumference. At least 10 circumferences were scored per mouse and 4-5 mice were used to generate each data point.
The villi length of duodenum, jejunum and ileum was measured using a customized Imaging Pro program.

Row | Compound | radio-protective effects [1] | binding to FGF receptor (FGF receptor) | downstream signaling (FGF receptor) | cell proliferation and radiation-induced apoptosis [2] | dose of peak response (irradiated mice (AGS)) | crypt survival [3] | also measured
1 | YRSRKYSSWYVALKR [F2A4, synthetic peptide that mimics FGF-2] | radio-protective effects similar to bFGF | equivalent to native bFGF | as effectively as bFGF | trigger cell proliferation and block radiation-induced apoptosis similar to bFGF | – | – | –
2 | FGF-1: acidic fibroblast growth factor, human protein | – | – | – | – | approximately 6 μg/mouse | approximately doubles crypt survival | –
3 | RFHSWDCIKTWASDTFVLVCYDDGSEA [F2A3, synthetic peptide that mimics FGF-2] | radio-protective effects similar to bFGF | equivalent to native bFGF | as effectively as bFGF | trigger cell proliferation and block radiation-induced apoptosis similar to bFGF | – | – | –
4 | FGF-2: basic fibroblast growth factor, native full length human protein | – | – | – | – | approximately 6 μg/mouse | approximately doubles crypt survival | dose with benefit (irradiated mice (AGS); human FGF-2 in mice): 1 μg/mouse; expression of Cdc42 (Cdc42, Rac1, Mapk10, Cfl): reversed the IR-suppressed expression; expression of Cfl (cofilin 1) (Cdc42, Rac1, Mapk10, Cfl): suppressed towards normal; expression of Mapk10 (Cdc42, Rac1, Mapk10, Cfl): suppressed towards normal; expression of Rac1 (Cdc42, Rac1, Mapk10, Cfl): reversed the IR-suppressed expression
5 | NCCCNCCSP(=O)(O)O [Amifostine] | – | – | – | – | – | – | plasma MCP-1, IL-6 and TNFα (MCP-1, IL-6, TNFα; Amifostine 200 mg/kg 10 min after IR): no benefit; plasma MCP-1, IL-6 and TNFα (MCP-1, IL-6, TNFα; Amifostine 200 mg/kg 30 min before IR): beneficial response; stool hemoccult score [4]: reduced stool hemoccult score; plasma endotoxin level ([5]; Amifostine given after irradiation): 2.87 EU/ml; plasma endotoxin level (mean) ([5]; Amifostine iv 30 min before IR): 0.93 EU/ml; crypt numbers in the ileum ([6]; 12 Gy, Amifostine given after irradiation): no effect when given after irradiation; crypt numbers in the ileum ([6]; 3.5 days after 12 Gy, Amifostine 200 mg/kg iv 30 min before sub-TBI): level of protection matched that obtained for Amifostine
